{
  "source": "patent US20250127918A1",
  "about": "“SITE-SELECTIVE CONJUGATION OF A PHARMACEUTICAL AGENT TO AN ANTIBODY USING AN AFFINITY PEPTIDE” (priority 2023, published 2025)",
  "key": {"Denosumab (hIgG2)": {"test_system": "Denosumab (hIgG2)", "test": "Small bioconjugation handle installation to other IgGs (Q-ToF LC-MS)", "format": "biochemical, human", "conditions": "20 equivalents, room temperature, HEPES pH 8.5", "experimental": "(§1) First, the electrophile-attached Z33 peptide reagent was dissolved in water to prepare a 2 mg/mL solution.\nas §1"}, "[1]": {"test": "Whole-body biodistribution of [89Zr]Zr-labelled affinity peptides after subcutaneous injection (gamma counter)", "conditions": "mouse, in vivo, sc", "method": "Additionally, 4 mice were sacrificed at each of these time points for determining the distribution in each organ using a gamma counter.\nFirst, 1, 2, 3 were dissolved in HEPES buffer (100 mM in ultra-trace elemental water; Fisher Scientific, pH 6.7) to prepare a 2 mg/mL solution of each.\nThe obtained samples were incubated with 37 MBq of [^89Zr]Zr-oxalate (obtained from Mallinckrodt Institute of Radiology, Nuclear Pharmacy Cyclotron; dilution in 0.5 M HEPES, pH 6.7) for 1 hour in the wet ice under mild agitation. Purification was then performed using a Zeba spin column (0.5 mL, 7K MWCO) to remove the non-complexed [^89Zr]Zr-oxalate, for 5 min at 1,200 rcf. Instant-thin layer chromatography (iTLC) was performed to verify the success of the radiolabeling with elution in 0.1 M citrate buffer."}, "mouse IgG [2]": {"test_system": "mouse IgG", "test": "Azido transfer to mouse IgG in mouse serum (E1/E2 sandwich ELISA)", "format": "biochemical", "conditions": "after 2 h of incubation in mouse sera", "from_the_text": "Two sandwich ELISA assays have been developed in-house, one for the detection of the azido moiety conjugated mouse IgG (mIgG, E1), the other one for the detection of the whole mIgGs (modified and unmodified) in the sample (E2). Both E1 and E2 were run simultaneously on a same plate, using the same initial stock sample, and were processed in parallel at the same time for every steps. The same azido-free capture goat anti-mouse polyclonal antibody (Creative Diagnostics) was used for both E1-E2 assays at 1 μg/mL (100 μL per well) for incubation overnight at 4° C. Washing steps were performed thoroughly between each incubation by using 0.02% Tween 20-PBS. […] Absorbances were measured at 450 nm and 540 nm (A0=A450 nm-A540 nm) using a Spark microplate reader (Tecan, USA). The background noise (Ablank) from the serum was subtracted to get the final absorbance of the sample (Asample=A0-Ablank). The ratio Asample (E1)/Asample (E2) was calculated to estimate the percentage of azido transfer on the total amount of IgG in the sample.\nTwo sandwich ELISA assays have been developed in-house, one for the detection of the azido moiety conjugated mouse IgG (mIgG, E1), the other one for the detection of the whole mIgGs (modified and unmodified) in the sample (E2). […] Absorbances were measured at 450 nm and 540 nm (A0=A450nm−A540nm) using a Spark microplate reader (Tecan, USA). […]"}, "Trastuzumab": {"target": "T1, Trastuzumab (Homo sapiens, UniProt P01857, D239E/L241M)", "T1 construct": "purchased Syd Labs Inc; MedChemExpress LLC; Bio X Cell", "T1 sequence (P01857 with tags, fused parts or gaps isoform P01857-1 D239E/L241M, other chains not shown)": "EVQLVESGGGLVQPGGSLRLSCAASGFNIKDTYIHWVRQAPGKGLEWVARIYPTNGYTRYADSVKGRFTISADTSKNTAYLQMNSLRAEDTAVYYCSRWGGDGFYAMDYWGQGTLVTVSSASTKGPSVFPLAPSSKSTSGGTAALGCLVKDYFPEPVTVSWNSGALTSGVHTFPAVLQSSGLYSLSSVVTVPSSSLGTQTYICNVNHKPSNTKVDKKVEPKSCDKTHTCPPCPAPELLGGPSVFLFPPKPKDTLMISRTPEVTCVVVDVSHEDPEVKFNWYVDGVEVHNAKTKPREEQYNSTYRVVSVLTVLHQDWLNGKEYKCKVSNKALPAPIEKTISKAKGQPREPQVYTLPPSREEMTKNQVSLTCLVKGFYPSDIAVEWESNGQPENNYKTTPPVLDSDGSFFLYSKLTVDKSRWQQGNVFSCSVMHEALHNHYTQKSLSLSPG", "test": "Bioconjugation handle / GLP1 transfer to trastuzumab, analyzed by Q-ToF LC-MS", "format": "biochemical", "conditions": "10 equivalents, 100 mM HEPES pH 8.5, room temperature, 24 h"}, "mouse IgG [3]": {"test_system": "mouse IgG", "test": "Azido transfer to mouse IgG in vivo (E1/E2 ELISA of serum)", "conditions": "subcutaneous injection of 30 mg/kg, WT Swiss mice, serum at 24 h, listed as N3-2-I", "experimental": "To evaluate the in vivo azido transfer in mice, two groups of mice were injected subcutaneously or intraperitoneally with the IgG-binder peptides. Mice were sacrificed at 24 hours post-injection, and the blood was collected for ELISA analysis. Sandwich ELISA assays. […] The percentage azido transfer was also compared with intraperitoneal injection of 10 mg/kg Z33-E20Hcy, intraperitoneal injection of 30 mg/kg of Z33-E20Hcy, subcutaneous injection of 30 mg/kg Z33-E20Hcy, and intraperitoneal injection of 30 mg/kg pegylated-Z33-E20Hcy (FIG. 2D).\nTwo sandwich ELISA assays have been developed in-house, one for the detection of the azido moiety conjugated mouse IgG (mIgG, E1), the other one for the detection of the whole mIgGs (modified and unmodified) in the sample (E2). Both E1 and E2 were run simultaneously on a same plate, using the same initial stock sample, and were processed in parallel at the same time for every steps. […] Absorbances were measured at 450 nm and 540 nm (A0=A450 nm-A540 nm) using a Spark microplate reader (Tecan, USA). The background noise (Ablank) from the serum was subtracted to get the final absorbance of the sample (Asample=A0-Ablank). The ratio Asample (E1)/Asample (E2) was calculated to estimate the percentage of azido transfer on the total amount of IgG in the sample. […]"}, "[4]": {"conditions": "mouse, in vivo, ip", "experimental": "Each sample was weighted and count in a gamma counter (Wizard2, Perkin Elmer LLC, USA) to get the counts per minutes (cpm) for determining the percentage of injected activity per gram (% IA/g) in each organ. Cpm were decay-corrected by using the following formula: A=A0 e((−(ln2)Δt)/T) with A=decay-corrected cpm, A0=raw cpm, Δt=time difference between the injection and the cpm measurement, and T=half-life of the radionuclide (i.e. 78.41 h for Zr-89)."}},
  "data": [
    {"sequence": "FNMQQQRRFYEALHD PNLNHcyEQRNAKIKSI RDD [PEL-21]", "values": [
      {"measurement": "Light chain total conversion", "setting": "Denosumab (hIgG2)", "result": 1, "unit": "%"},
      {"measurement": "Time detectable in the kidneys", "setting": "[1]", "result": "up to 240 hours"},
      {"measurement": "IgG conversion rate in mouse sera", "setting": "mouse IgG [2]", "result": "33±1", "unit": "%"},
      {"measurement": "Light chain total conversion", "setting": "Trastuzumab", "result": 5, "unit": "%"},
      {"measurement": "Azido transfer to mouse IgG in vivo (conversion rate)", "setting": "mouse IgG [3]", "result": "33±12", "unit": "%"},
      {"measurement": "Time remaining in specific organs", "setting": "[4]", "result": "up to 144 hours"}
    ]}
  ]
}
